Experimental data reported in patent US20180170941A1 (priority 2016, published 2018).

target: T1, α5β3γ2 GABAA receptors (Ltk cell membranes) (Homo sapiens, UniProt P18507+P31644); assay: Binding activity of test compounds on GABAAR: inhibition of [3H]Ro15-1788 binding; settings: not given
T1 construct: membranes
Procedure, shortened: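 Membranes from dexamethasone-induced Ltk cells (α5 line: 0.5 μM, 1 day); binding with [3H]Ro15-1788 for 1 h at 4 °C in 50 mM KH2PO4, 1 mM EDTA, 0.2 M KCl, pH 7.4, 0.2 mg/ml α5 protein. Nonspecific binding defined by 10 μM diazepam; filtration, scintillation counting, triplicates.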

T1 sequence (P31644 32-462): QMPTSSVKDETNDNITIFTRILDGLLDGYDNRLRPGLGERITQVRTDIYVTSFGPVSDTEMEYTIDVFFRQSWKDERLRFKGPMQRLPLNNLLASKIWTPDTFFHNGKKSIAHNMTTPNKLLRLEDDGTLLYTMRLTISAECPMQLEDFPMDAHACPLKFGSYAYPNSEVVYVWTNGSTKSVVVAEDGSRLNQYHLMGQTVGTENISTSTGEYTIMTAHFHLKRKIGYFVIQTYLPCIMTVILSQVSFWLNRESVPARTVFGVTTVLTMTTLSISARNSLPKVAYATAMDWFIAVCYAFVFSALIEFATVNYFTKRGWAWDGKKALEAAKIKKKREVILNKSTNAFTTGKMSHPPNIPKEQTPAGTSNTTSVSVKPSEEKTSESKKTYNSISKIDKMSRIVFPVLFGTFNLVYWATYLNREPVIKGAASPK
T1 sequence (P28472 26-473 partner): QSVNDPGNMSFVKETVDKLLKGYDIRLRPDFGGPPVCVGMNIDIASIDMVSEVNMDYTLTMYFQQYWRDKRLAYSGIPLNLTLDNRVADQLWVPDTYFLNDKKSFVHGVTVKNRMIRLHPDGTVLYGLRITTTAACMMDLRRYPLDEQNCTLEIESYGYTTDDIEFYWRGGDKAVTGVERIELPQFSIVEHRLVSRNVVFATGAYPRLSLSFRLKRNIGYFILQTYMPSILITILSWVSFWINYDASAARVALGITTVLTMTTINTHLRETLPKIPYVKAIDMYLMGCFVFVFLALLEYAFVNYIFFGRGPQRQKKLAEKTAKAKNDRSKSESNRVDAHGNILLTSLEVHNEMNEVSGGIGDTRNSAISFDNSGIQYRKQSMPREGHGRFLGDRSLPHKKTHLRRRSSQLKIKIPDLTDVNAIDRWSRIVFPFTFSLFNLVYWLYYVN
T1 sequence (P18507 40-475): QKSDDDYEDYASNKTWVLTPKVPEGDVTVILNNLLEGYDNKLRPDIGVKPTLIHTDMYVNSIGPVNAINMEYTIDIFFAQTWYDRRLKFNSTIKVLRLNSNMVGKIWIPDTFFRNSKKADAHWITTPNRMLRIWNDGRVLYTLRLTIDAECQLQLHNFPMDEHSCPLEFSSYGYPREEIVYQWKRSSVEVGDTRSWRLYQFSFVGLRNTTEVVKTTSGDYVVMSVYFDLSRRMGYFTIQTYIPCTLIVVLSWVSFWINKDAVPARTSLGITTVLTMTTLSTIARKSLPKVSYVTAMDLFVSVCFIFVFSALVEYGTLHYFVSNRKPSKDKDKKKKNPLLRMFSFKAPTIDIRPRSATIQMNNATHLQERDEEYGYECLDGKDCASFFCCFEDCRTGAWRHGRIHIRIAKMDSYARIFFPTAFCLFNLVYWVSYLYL

`COc1ccc2c(c1)-c1nnc(COc3ccccc3)n1Cc1c(Cc3ccccc3)ncn1-2` [Compound 142] was tested, and the Ki was > 1000 nM.

same assay, conditions: GABA α5 Binding Ki Values, inhibition of [3H]Ro15-1788 binding; reported as ranges

Compared with `COc1ccc2c(c1)-n1nncc1Cc1c(C3=NCCO3)ncn1-2` [Compound 383], `COc1ccc2c(c1)-n1nncc1Cc1c(C3=N[C@@H](C)CO3)ncn1-2` [Compound 292] is higher in Ki: < 100 nM for the first, 100 to 1000 nM for the second. The first binds more tightly here.

`COc1ccc2c(c1)-c1nnc(COc3cccc4ccccc34)n1Cc1c(-c3noc(C(C)C)n3)ncn1-2` [Compound 177] and `CC(C)c1nc(-c2ncn3c2Cn2c(COc4ccccc4)nnc2-c2cc(F)ccc2-3)no1` [Compound 147] cannot be ordered by Ki: < 100 nM for the first, < 100 nM for the second.

`COCc1nnc2n1Cc1c(-c3noc(C(C)C)n3)ncn1-c1ccc(F)cc1-2` [Compound 186] and `COCc1nnc2n1Cc1c(-c3noc(C(C)C)n3)ncn1-c1ccc(OC)cc1-2` [Compound 169] cannot be ordered by Ki: < 100 nM for the first, < 100 nM for the second.

`COCc1nnc2n1Cc1c(Br)ncn1-c1ccc(Cl)cc1-2` [Compound 217] and `C#Cc1ncn2c1Cn1c(COC)nnc1-c1cc(Cl)ccc1-2` [Compound 256] cannot be ordered by Ki: < 100 nM for the first, < 100 nM for the second.

`COc1ccc2c(c1)-n1nncc1Cc1c(C3=N[C@@H](c4ccc(C(F)(F)F)cc4)CO3)ncn1-2` [Compound 372] and `COc1ccc2c(c1)-n1nncc1Cc1c(C#CCc3cccc(OC(F)(F)F)c3)ncn1-2` [Compound 418] cannot be ordered by Ki: < 100 nM for the first, < 100 nM for the second.

Compared with `Cc1noc(-c2ncn3c2Cc2c(C)nnn2-c2cc(F)ccc2-3)n1` [Compound 110], `Cc1noc(-c2ncn3c2Cc2c(C)nnn2-c2ccccc2-3)n1` [Compound 126] is lower in Ki: 100 to 1000 nM for the first, < 100 nM for the second.

First: COc1ccc2c(c1)-n1nncc1Cc1c(-c3nc(C(C)C)co3)ncn1-2 [Compound 394]
Second: COCc1nnc2n1Cc1c(-c3nc(C(C)C)co3)ncn1-c1ccc(Cl)cc1-2 [Compound 246]
The Ki of the first is lower: < 100 nM for the first, 100 to 1000 nM for the second.

`COCc1nnc2n1Cc1c(C#Cc3ccccc3)ncn1-c1ccc(Cl)cc1-2` [Compound 285] and `C#Cc1ncn2c1Cn1c(COCc3ccccc3)nnc1-c1cc(Cl)ccc1-2` [Compound 351] cannot be ordered by Ki: < 100 nM for the first, < 100 nM for the second.

`COc1ccc2c(c1)-c1nnc(COc3ccccc3)n1Cc1c(C(=O)OC(C)C)ncn1-2` [Compound 120] and `C#Cc1ncn2c1Cn1c(COc3ccccc3)nnc1-c1cc(OC)ccc1-2` [Compound 236] cannot be ordered by Ki: < 100 nM for the first, < 100 nM for the second.

`Clc1ccc2c(c1)-n1nncc1Cc1c(C#Cc3ccccc3)ncn1-2` [Compound 395] and `Clc1ccc2c(c1)-n1nncc1Cc1c(Br)ncn1-2` [Compound 452] cannot be ordered by Ki: < 100 nM for the first, < 100 nM for the second.

`COCc1nnc2n1Cc1c(-c3nc(C)co3)ncn1-c1ccc(Cl)cc1-2` [Compound 244] and `COCc1nnc2n1Cc1c(-c3ncc(C)o3)ncn1-c1ccc(Cl)cc1-2` [Compound 296] cannot be ordered by Ki: < 100 nM for the first, < 100 nM for the second.

`C#Cc1ncn2c1Cn1c(COCC)nnc1-c1cc(Cl)ccc1-2` [Compound 261] and `COCc1nnc2n1Cc1c(C3=N[C@@H](c4ccc(F)cc4)CO3)ncn1-c1ccc(Cl)cc1-2` [Compound 320] cannot be ordered by Ki: < 100 nM for the first, < 100 nM for the second.

`Cc1cnc(-c2ncn3c2Cc2c(C)nnn2-c2cc(F)ccc2-3)nc1` [Compound 144] and `Cc1cnc(-c2ncn3c2Cc2c(C)nnn2-c2ccccc2-3)nc1` [Compound 146] fall in the same range of Ki: 100 to 1000 nM for the first, 100 to 1000 nM for the second.

First: Cc1nnn2c1Cc1c(-c3ccccc3)ncn1-c1ccc(F)cc1-2 [Compound 139]
Second: CCOC(=O)c1ncn2c1Cc1c(COc3ccccc3)nnn1-c1cc(F)ccc1-2 [Compound 107]
The Ki of the first is higher: 100 to 1000 nM for the first, < 100 nM for the second.

Going from `C#Cc1ncn2c1C(Cc1ccccc1)c1cnnn1-c1cc(OC)ccc1-2` (stereo not shown) [Compound 449] to `COc1ccc2c(c1)-n1nnc(COc3ccc(F)cc3)c1Cc1c(C#N)ncn1-2` [Compound 222], the Ki falls from > 1000 nM to < 100 nM. The second binds more tightly here.

`CCOC(=O)c1ncn2c1Cc1c(CN(CC)CC)nnn1-c1cc(OC)ccc1-2` [Compound 50] and `COCc1nnn2c1Cc1c(C3=N[C@@H](C)CO3)ncn1-c1ccc(Cl)cc1-2` [Compound 300] fall in the same range of Ki: 100 to 1000 nM for the first, 100 to 1000 nM for the second.

same assay, conditions: inhibition of [3H]Ro15-1788 binding; reported as ranges

With `COCc1nnc2n1Cc1c(COCc3ccccc3F)ncn1-c1ccc(Cl)cc1-2` [Compound 431] the Ki was > 1000 nM.
